Reference: paper PMC9657391, “A Food-Grade Method for Enhancing the Levels of Low Molecular Weight Proanthocyanidins with Potentially High Intestinal Bioavailability” (International Journal of Molecular Sciences, 2022)

Target: T1, COX-2 (cyclooxygenase 2) (Homo sapiens, UniProt P35354)
T1 construct: gene PTGS2
Assay: biochemical

T1 sequence (P35354 18-604): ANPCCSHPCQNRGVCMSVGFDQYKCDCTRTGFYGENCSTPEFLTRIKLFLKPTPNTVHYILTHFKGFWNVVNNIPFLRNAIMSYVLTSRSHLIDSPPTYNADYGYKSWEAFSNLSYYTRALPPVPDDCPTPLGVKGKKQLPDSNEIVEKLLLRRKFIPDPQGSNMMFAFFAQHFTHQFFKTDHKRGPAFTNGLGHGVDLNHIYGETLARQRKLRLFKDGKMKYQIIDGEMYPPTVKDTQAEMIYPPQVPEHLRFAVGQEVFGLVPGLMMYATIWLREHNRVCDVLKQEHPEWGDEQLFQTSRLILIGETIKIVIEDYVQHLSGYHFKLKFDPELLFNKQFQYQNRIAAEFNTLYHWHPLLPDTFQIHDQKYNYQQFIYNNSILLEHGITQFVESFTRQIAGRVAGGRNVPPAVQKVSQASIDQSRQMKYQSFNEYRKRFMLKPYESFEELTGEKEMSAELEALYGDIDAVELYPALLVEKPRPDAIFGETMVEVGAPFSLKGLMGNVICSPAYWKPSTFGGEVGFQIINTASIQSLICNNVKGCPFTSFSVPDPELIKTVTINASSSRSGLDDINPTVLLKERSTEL

## COc1ccc2cc([C@H](C)C(=O)O)ccc2c1 [Naproxen]
  IC50: 13 µM
